# According to the supplement of paper PMC10307832:
# Legend:
# Experiment in all cases: relative viability (nuclei count vs DMSO), 5 days (fraction); higher = more cells survive
# [1] = compound: COC1=C(C=C(C=C1)C2=CC3=NC=CN3C(=N2)NC4=C(C=CC=N4)C(=O)N)OC [BAY61-3606] + Nc1nc2[nH]cc(CCc3ccc(C(=O)N[C@@H](CCC(=O)O)C(=O)O)cc3)c2c(=O)[nH]1 [Pemetrexed] (partner 0.2 µM)
# Outline: (§1)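 Lung cancer cell lines were seeded in 1536-well plates and dosed by pin tool the next day, with either a single drug or a fixed anchor-drug dose combined with five library-drug doses (not always all listed) spaced in √10 steps. Five days later, one step fixed the cells and stained their nuclei (final 0.05% Triton X-100, 1% formaldehyde, 1 ug/ml Hoechst), and nuclei were counted on 4× images. Relative viability is the nuclei count in treated wells divided by the count in vehicle wells, and each value is the median of duplicate plates.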
# [2] = compound: COc1cccc2c1C(=O)c1c(O)c3c(c(O)c1C2=O)C[C@@](O)(C(=O)CO)C[C@@H]3O[C@H]1C[C@H](N)[C@H](O)[C@H](C)O1 [Doxorubicin] + CC(=O)Nc1cccc(-n2c(=O)n(C3CC3)c(=O)c3c(Nc4ccc(I)cc4F)n(C)c(=O)c(C)c32)c1 [Trametinib] (partner 0.02 µM)
# Outline: as §1
# [3] = compound: COc1cccc2c1C(=O)c1c(O)c3c(c(O)c1C2=O)C[C@@](O)(C(=O)CO)C[C@@H]3O[C@H]1C[C@H](N)[C@H](O)[C@H](C)O1 [Doxorubicin] + COc1cc2c(Oc3ccc(NC(=O)C4(C(=O)Nc5ccc(F)cc5)CC4)cc3F)ccnc2cc1OCCCN1CCOCC1 [Foretinib] (partner 0.25 µM)
# Outline: as §1
# [4] = compound: COc1cccc2c1C(=O)c1c(O)c3c(c(O)c1C2=O)C[C@@](O)(C(=O)CO)C[C@@H]3O[C@H]1C[C@H](N)[C@H](O)[C@H](C)O1 [Doxorubicin] + Nc1nc2[nH]cc(CCc3ccc(C(=O)N[C@@H](CCC(=O)O)C(=O)O)cc3)c2c(=O)[nH]1 [Pemetrexed] (partner 0.2 µM)
# Outline: as §1
Cell Line,relative viability ([1]; first compound 0.02 µM),relative viability ([1]; first compound 0.06325 µM),relative viability ([1]; first compound 0.2 µM),relative viability ([1]; first compound 0.6325 µM),relative viability ([1]; first compound 2 µM),relative viability ([2]; first compound 0.001 µM),relative viability ([2]; first compound 0.003162 µM),relative viability ([2]; first compound 0.01 µM),relative viability ([2]; first compound 0.03162 µM),relative viability ([2]; first compound 0.1 µM),relative viability ([3]; first compound 0.001 µM),relative viability ([3]; first compound 0.003162 µM),relative viability ([3]; first compound 0.01 µM),relative viability ([3]; first compound 0.03162 µM),relative viability ([3]; first compound 0.1 µM),relative viability ([4]; first compound 0.001 µM),relative viability ([4]; first compound 0.003162 µM),relative viability ([4]; first compound 0.01 µM),relative viability ([4]; first compound 0.03162 µM),relative viability ([4]; first compound 0.1 µM)
HARA,0.25,0.253,0.236,0.221,0.238,0.544,0.575,0.799,0.471,0.647,0.791,0.946,0.779,0.816,0.866,0.22,0.257,0.338,0.259,0.268
NCI-H2126,0.708,0.654,0.639,0.713,0.58,0.6,0.572,0.561,0.526,0.601,1.29,1.12,0.884,1.12,1.28,0.623,0.738,0.712,0.699,0.681
NCI-H1915,0.546,0.544,0.488,0.447,0.453,0.306,0.31,0.313,0.312,0.303,1.1,1.11,1.02,1.06,1.1,0.533,0.529,0.525,0.568,0.502
ChaGo-K-1,0.265,0.268,0.253,0.265,0.253,0.984,0.858,0.661,0.926,0.86,1.03,0.946,0.835,0.937,0.826,0.264,0.254,0.231,0.259,0.273
PC-14,0.159,0.136,0.134,0.137,0.148,0.751,0.74,0.536,0.162,0.0928,1,0.967,0.998,0.912,0.931,0.139,0.135,0.118,0.0995,0.0845
COR-L23,0.198,0.203,0.2,0.202,0.195,0.54,0.526,0.545,0.254,0.149,0.964,1.06,0.918,0.64,0.221,0.202,0.212,0.203,0.2,0.186
COR-L 105,1.24,1.13,1.11,0.994,0.968,0.452,0.483,0.423,0.423,0.377,1.02,0.943,0.9,0.62,0.7,0.87,1.2,1.05,0.808,0.618
LK-2,0.245,0.232,0.384,0.288,0.252,0.798,0.936,0.598,0.578,0.699,1.2,1.32,0.904,0.826,1.41,0.225,0.255,0.228,0.26,0.238
201T,0.358,0.366,0.339,0.325,0.32,0.699,0.727,0.709,0.71,0.736,0.963,1.03,1.02,0.898,0.523,0.344,0.325,0.352,0.338,0.351
HCC-78,0.864,0.951,0.868,0.889,0.825,0.723,0.85,0.735,0.668,0.66,0.577,0.627,0.528,0.517,0.499,0.946,0.889,0.927,0.909,0.888
H3255,0.587,0.546,0.598,0.626,0.593,,0.62,0.633,0.518,0.591,0.791,0.821,0.973,0.818,0.863,0.526,0.558,0.559,0.535,0.523
NCI-H838,0.257,0.256,0.234,0.254,0.211,0.515,0.612,0.536,0.294,0.239,1.1,1.07,1.06,0.85,0.438,0.252,0.228,0.229,0.256,0.236
NCI-H2085,0.984,0.946,0.861,1.08,0.898,0.623,0.557,0.564,0.472,0.496,1.05,0.981,1.08,0.923,0.855,0.904,0.943,0.939,1.1,0.802
NCI-H2405,1.09,1.08,1.01,1.01,0.82,0.595,0.548,0.601,0.446,0.584,1.02,1.1,1.02,1.09,1,1.05,1.11,1.05,0.942,0.445
NCI-H2170,0.285,0.268,0.278,0.258,0.269,0.98,0.953,0.887,0.756,0.959,0.994,1.07,0.998,0.96,0.97,0.248,0.265,0.32,0.252,0.274
NCI-H1944,0.677,0.565,0.644,0.583,0.518,0.398,0.422,0.385,0.399,0.449,0.848,0.945,0.908,0.812,0.869,0.606,0.602,0.643,0.504,0.495

Cell Line,relative viability ([1]; first compound 0.02 µM),relative viability ([1]; first compound 0.06325 µM),relative viability ([1]; first compound 0.2 µM),relative viability ([1]; first compound 0.6325 µM),relative viability ([1]; first compound 2 µM),relative viability ([2]; first compound 0.001 µM),relative viability ([2]; first compound 0.003162 µM),relative viability ([2]; first compound 0.01 µM),relative viability ([2]; first compound 0.03162 µM),relative viability ([2]; first compound 0.1 µM),relative viability ([3]; first compound 0.001 µM),relative viability ([3]; first compound 0.003162 µM),relative viability ([3]; first compound 0.01 µM),relative viability ([3]; first compound 0.03162 µM),relative viability ([3]; first compound 0.1 µM),relative viability ([4]; first compound 0.001 µM),relative viability ([4]; first compound 0.003162 µM),relative viability ([4]; first compound 0.01 µM),relative viability ([4]; first compound 0.03162 µM),relative viability ([4]; first compound 0.1 µM)
NCI-H661,0.963,1.01,0.84,0.931,0.703,0.613,0.604,0.488,0.401,0.388,1.01,1,0.954,0.826,0.542,0.894,1.02,0.891,0.754,0.643
NCI-H650,0.958,0.904,0.892,1.01,0.797,0.98,0.876,1.04,0.881,0.917,0.93,0.965,1.08,0.834,0.954,1.05,0.846,0.926,0.867,0.784
EKVX,0.439,0.368,0.401,0.495,0.346,0.384,0.317,0.368,0.39,0.361,0.735,0.891,0.912,0.831,0.704,0.336,0.404,0.426,0.45,0.257
SK-MES-1,1.03,0.909,0.869,0.88,0.713,0.563,0.572,0.513,0.283,0.192,1,0.843,0.923,0.818,0.766,0.926,0.899,0.872,0.291,0.234
EPLC-272H,0.374,0.299,0.319,0.374,0.278,0.278,0.288,0.28,0.289,0.295,0.899,0.67,0.753,0.517,0.78,0.365,0.372,0.377,0.322,0.298
NCI-H1650,0.351,0.356,0.42,0.46,0.331,0.56,0.532,0.433,0.218,0.144,0.967,1.38,0.859,0.291,0.181,0.37,0.374,0.381,0.242,0.19
NCI-H1395,1.04,0.659,0.72,0.899,0.73,0.929,0.948,0.964,0.971,0.867,0.949,1.05,0.953,0.892,0.92,0.887,1.02,1.08,0.7,0.537
NCI-H2228,0.326,0.325,0.391,0.393,0.369,0.178,0.533,0.411,0.356,0.165,0.805,0.992,0.689,0.651,0.363,0.335,0.344,0.32,0.278,0.244
NCI-H2023,0.263,0.257,0.212,0.246,0.157,0.456,0.513,0.437,0.151,0.11,0.567,0.934,0.507,0.461,0.17,0.247,0.218,0.212,0.128,0.0912
NCI-H322M,0.598,0.627,0.634,0.637,0.538,0.478,0.565,0.52,0.542,0.498,0.92,0.898,0.905,0.717,0.562,0.682,0.542,0.66,0.548,0.512
HCC-827,0.274,0.295,0.274,0.254,0.262,0.549,0.526,0.533,0.509,0.486,1.07,1,1.05,0.984,0.982,0.272,0.281,0.22,0.247,0.261
LU99A,0.175,0.149,0.193,0.171,0.166,0.521,0.614,0.628,0.592,0.635,0.832,0.915,0.769,0.721,0.802,0.199,0.186,0.191,0.173,0.165
LC-2-ad,0.289,0.267,0.261,0.289,0.267,0.949,0.888,0.924,0.924,0.895,0.862,0.778,0.714,0.392,0.321,0.267,0.255,0.264,0.305,0.288
NCI-H460,0.0615,0.0666,0.0787,0.0676,0.0667,0.138,0.0856,0.0422,0.0236,0.0041,0.965,1.09,0.843,0.105,0.0481,0.0538,0.064,0.0574,0.0641,0.0392
HOP-62,,0.354,0.323,0.332,0.249,0.373,0.389,0.413,0.411,0.373,1.05,1.07,1.06,1.11,1.16,0.356,0.34,0.302,0.25,0.349
